In US10131652B2, “Pyrimidinyloxy benzene derivatives as herbicides” (E. I. DU PONT DE NEMOURS AND COMPANY, priority 2014, dated 2018):

What was measured:
Type in all cases: in vivo
[1] = system: Italian ryegrass (Lolium multiflorum); assay: Test B pre-/postemergence plant response
Outline: (§1)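 Evaluation is visual, about 10 days after application, rating injury from 0 (none) to 100 (complete control) relative to untreated controls. Application was a preemergence soil spray on seeded pots or a postemergence spray on one- to two-leaf plants.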

[2] = system: barnyardgrass (Echinochloa crus-galli); assay: Test B pre-/postemergence plant response
Outline: as §1

corn (Zea mays) = assay: Test B pre-/postemergence plant response
Outline: as §1

[3] = system: giant foxtail (Setaria faberii); assay: Test B pre-/postemergence plant response
Outline: as §1

kochia (Kochia scoparia) = assay: Test B pre-/postemergence plant response
Outline: as §1

[4] = system: pigweed (Amaranthus retroflexus); assay: Test B pre-/postemergence plant response
Outline: as §1

[5] = system: ragweed (common ragweed, Ambrosia elatior); assay: Test B pre-/postemergence plant response
Outline: as §1

[6] = system: wheat (Triticum aestivum); assay: Test B pre-/postemergence plant response
Outline: as §1

[7] = system: blackgrass (Alopecurus myosuroides); assay: Test B postemergence plant response
Outline: (§2)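 Values are visual control ratings (0 to 100) recorded approximately 10 days after postemergence application to greenhouse-grown plants of 2 to 10 cm, one- to two-leaf stage, each judged against untreated controls.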

[8] = system: galium (catchweed bedstraw, Galium aparine); assay: Test B postemergence plant response
Outline: as §2

[9] = system: barnyardgrass (Echinochloa crus-galli); assay: Test C flooded paddy test plant response; settings: Flood, 250 g ai/ha; scale of 0 to 100 where 0 is no effect and 100 is complete control; 13 to 15 days
Outline: (§3)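 Plants grown to the 2-leaf stage; pots flooded to 3 cm above soil, test compounds applied directly to paddy water, depth maintained throughout. Greenhouse for 13 to 15 days, then visual rating versus controls on a 0–100 scale (0 no effect, 100 complete control).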

[10] = system: ducksalad (Heteranthera limosa); assay: Test C flooded paddy test plant response; settings: Flood, 250 g ai/ha; scale of 0 to 100 where 0 is no effect and 100 is complete control; 13 to 15 days
Outline: as §3

rice (Oryza sativa) = assay: Test C flooded paddy test plant response; settings: Flood, 250 g ai/ha; scale of 0 to 100 where 0 is no effect and 100 is complete control; 13 to 15 days
Outline: as §3

[11] = system: small-flower umbrella sedge (Cyperus difformis); assay: Test C flooded paddy test plant response; settings: Flood, 250 g ai/ha; scale of 0 to 100 where 0 is no effect and 100 is complete control; 13 to 15 days
Outline: as §3

[12] = 125 g ai/ha, postemergence, 0 to 100 scale, 0 no effect, 100 complete control
[13] = Postemergence, 500 g ai/ha, 0 to 100 scale (0 no effect, 100 complete control)
[14] = Preemergence, 125 g ai/ha, 0 to 100 scale (0 no effect, 100 complete control)
[15] = Preemergence, 500 g ai/ha, 0 to 100 scale where 0 is no effect and 100 is complete control
[16] = 31 g ai/ha, Preemergence, 0 to 100 scale where 0 is no effect and 100 is complete control
[17] = Postemergence, 31 g ai/ha, 0 to 100 scale (0 no effect, 100 complete control)

Structure (SMILES) | Plant response rating, Ryegrass, Italian [1, 12] | Ryegrass, Italian plant response rating [1, 14] | Plant response rating, Barnyardgrass [2, 12] | Barnyardgrass plant response rating [2, 14] | Plant response rating, Corn (corn (Zea mays); [12]) | Plant response rating, Foxtail, Giant [3, 12] | Foxtail, Giant plant response rating [3, 14] | Plant response rating, Kochia (kochia (Kochia scoparia); [12]) | Kochia plant response rating (kochia (Kochia scoparia); [14]) | Plant response rating, Pigweed [4, 12] | Pigweed plant response rating [4, 14] | Plant response rating, Ragweed [5, 12] | Ragweed plant response rating [5, 14] | Plant response rating, Wheat [6, 12] | Plant response rating, Blackgrass [7, 12] | Plant response rating, Galium [8, 12] | Barnyardgrass plant response rating [9] | Ducksalad plant response rating [10] | Rice plant response rating (rice (Oryza sativa)) | Sedge, Umbrella plant response rating [11] | also measured
FC(F)(F)Cn1cnc(-c2ccccc2Oc2ncc(Cl)cn2)c1 [Compound 161] | 0 | 0 | 0 | 0 | 0 | 0 | 0 | 0 | 0 | 0 | 0 | 0 | 0 | 0 | 0 | 0 | 0 | 0 | 0 | 0 | Plant response rating, Ryegrass, Italian [1, 13]: 0; Plant response rating, Ryegrass, Italian [1, 15]: 0; Plant response rating, Barnyardgrass [2, 13]: 0; Plant response rating, Barnyardgrass [2, 15]: 0; Plant response rating, Corn (corn (Zea mays); [13]): 0; Plant response rating, Foxtail, Giant [3, 13]: 0; Plant response rating, Foxtail, Giant [3, 15]: 0; Plant response rating, Kochia (kochia (Kochia scoparia); [13]): 0; Plant response rating, Kochia (kochia (Kochia scoparia); [15]): 0; Plant response rating, Pigweed [4, 13]: 0; Plant response rating, Pigweed [4, 15]: 0; Plant response rating, Ragweed [5, 13]: 0; Plant response rating, Ragweed [5, 15]: 0; Plant response rating, Wheat [6, 13]: 0; Plant response rating, Blackgrass [7, 13]: 0; Plant response rating, Galium [8, 13]: 0
Clc1cnc(Oc2ccccc2-c2cnccn2)nc1 [Compound 163] | 0 | 0 | 0 | 0 | 10 | 10 | 0 | 50 | 0 | 30 | 30 | 30 | 40 | 0 | 20 | 30 | 0 | 0 | 0 | 0 | Plant response rating, Ryegrass, Italian [1, 16]: 0; Plant response rating, Ryegrass, Italian [1, 17]: 0; Plant response rating, Barnyardgrass [2, 16]: 0; Plant response rating, Barnyardgrass [2, 17]: 0; Plant response rating, Corn (corn (Zea mays); [17]): 0; Plant response rating, Foxtail, Giant [3, 16]: 0; Plant response rating, Foxtail, Giant [3, 17]: 0; Plant response rating, Kochia (kochia (Kochia scoparia); [16]): 0; Plant response rating, Kochia (kochia (Kochia scoparia); [17]): 10; Plant response rating, Pigweed [4, 16]: 0; Plant response rating, Pigweed [4, 17]: 20; Plant response rating, Ragweed [5, 16]: 0; Plant response rating, Ragweed [5, 17]: 30; Plant response rating, Wheat [6, 17]: 0; Plant response rating, Blackgrass [7, 17]: 20; Plant response rating, Galium [8, 17]: 20
Fc1cnc(Oc2ccccc2-c2cnccn2)nc1 [Compound 164] | 0 | 0 | 0 | 0 | 0 | 0 | 0 | 0 | 0 | 30 | 30 | 30 | 0 | 0 | 0 | 30 | 0 | 0 | 0 | 0 | Plant response rating, Ryegrass, Italian [1, 16]: 0; Plant response rating, Ryegrass, Italian [1, 17]: 0; Plant response rating, Barnyardgrass [2, 16]: 0; Plant response rating, Barnyardgrass [2, 17]: 0; Plant response rating, Corn (corn (Zea mays); [17]): 0; Plant response rating, Foxtail, Giant [3, 16]: 0; Plant response rating, Foxtail, Giant [3, 17]: 0; Plant response rating, Kochia (kochia (Kochia scoparia); [16]): 0; Plant response rating, Kochia (kochia (Kochia scoparia); [17]): 0; Plant response rating, Pigweed [4, 16]: 0; Plant response rating, Pigweed [4, 17]: 0; Plant response rating, Ragweed [5, 16]: 0; Plant response rating, Ragweed [5, 17]: 20; Plant response rating, Wheat [6, 17]: 0; Plant response rating, Blackgrass [7, 17]: 0; Plant response rating, Galium [8, 17]: 10
Fc1cccc(Oc2ncc(Cl)cn2)c1-c1cnccn1 [Compound 165] | 0 | 0 | 20 | 10 | 0 | 20 | 10 | 40 | 60 | 50 | 80 | 60 | 50 | 0 | 30 | 40 | 0 | 0 | 0 | 0 | Plant response rating, Ryegrass, Italian [1, 16]: 0; Plant response rating, Ryegrass, Italian [1, 17]: 0; Plant response rating, Barnyardgrass [2, 16]: 0; Plant response rating, Barnyardgrass [2, 17]: 0; Plant response rating, Corn (corn (Zea mays); [17]): 0; Plant response rating, Foxtail, Giant [3, 16]: 0; Plant response rating, Foxtail, Giant [3, 17]: 10; Plant response rating, Kochia (kochia (Kochia scoparia); [16]): 0; Plant response rating, Kochia (kochia (Kochia scoparia); [17]): 20; Plant response rating, Pigweed [4, 16]: 30; Plant response rating, Pigweed [4, 17]: 30; Plant response rating, Ragweed [5, 16]: 20; Plant response rating, Ragweed [5, 17]: 30; Plant response rating, Wheat [6, 17]: 0; Plant response rating, Blackgrass [7, 17]: 20; Plant response rating, Galium [8, 17]: 20
Fc1cnc(Oc2cccc(F)c2-c2cnccn2)nc1 [Compound 166] | 0 | 0 | 0 | 0 | 10 | 0 | 0 | 0 | 0 | 30 | 60 | 30 | 20 | 0 | 0 | 30 | 0 | 0 | 0 | 0 | Plant response rating, Ryegrass, Italian [1, 16]: 0; Plant response rating, Ryegrass, Italian [1, 17]: 0; Plant response rating, Barnyardgrass [2, 16]: 0; Plant response rating, Barnyardgrass [2, 17]: 0; Plant response rating, Corn (corn (Zea mays); [17]): 0; Plant response rating, Foxtail, Giant [3, 16]: 0; Plant response rating, Foxtail, Giant [3, 17]: 0; Plant response rating, Kochia (kochia (Kochia scoparia); [16]): 0; Plant response rating, Kochia (kochia (Kochia scoparia); [17]): 0; Plant response rating, Pigweed [4, 16]: 40; Plant response rating, Pigweed [4, 17]: 20; Plant response rating, Ragweed [5, 16]: 0; Plant response rating, Ragweed [5, 17]: 10; Plant response rating, Wheat [6, 17]: 0; Plant response rating, Blackgrass [7, 17]: 0; Plant response rating, Galium [8, 17]: 20
